Experimental data taken from patent US20220308068A1, “BIOMARKER IN OSTEOPOROSIS INTERVENTION THERAPY BY BONE PEPTIDE, SCREENING METHOD AND USE THEREOF” (Institute of Food Science and Technology, Chinese Academy …, priority 2019, published 2022).

Tested on: ovariectomized osteoporosis rat model
Experiment: H&E staining of right tibias
Assay type: in vivo, SD rats
Conditions: right tibia, 12 weeks of intervention treatment
Procedure: 1, the construction of ovariectomized rats models: SD rats are kept in a clean environment under a controlled room temperature at 25±2° C. and alternates 12/12 light and dark every day, and the SD rats feed freely. After one week adaptive feeding, randomly select 8 female rats, anesthetize them with 1% (v/v) pentobarbital sodium (40 mg/kg BW), and remove a little fat near ovaries. The remaining 40 rats are ovariectomized after being anesthetized with pentobarbital sodium. The recovery situation is observed in a 4-week recovery period, and their weight changes are detected. These are prepared by the applicant in advance. (any research about metabolic fingerprint changes of ovariectomized osteoporotic rats after intervention with bone peptide have not been reported according to the existing literature). 2, animal grouping and samples collection: the 8 female rats with a little fat near ovaries removed are selected as a sham-operated group, the ovariectomized 40 rats are randomly divided into 5 groups with 8 rats in each group, and are named by a negative control group, a positive control group, a low-concentration treatment group, a medium-concentration treatment group and a high-concentration treatment group. The rats are perfused by different solutions of bovine bone peptide (diluted by ultrapure water, and sterilized) with concentration of 100 mg/kg, 200 mg/kg, and 500 mg/kg according to the weights of the rats. The rats in the negative control group are perfused with equal volume of ultrapure sterile water (a perfusing volume is generally 1-2 mL/100 g BW), and the rats in the positive control group are perfused with 50 μg/kg of 17β-estradiol (ES). Observe weight changes of the rats and measure the weights every two weeks. After perfusing experiment, the rats are sacrificed in accordance with the animal welfare operating procedures, femurs and tibias on both sides are taken, and soft tissues such as muscle and fascia attached to bone tissues are removed. The right tibias are subjected to paraffin-embedded H&E staining treatment after fixing in a phosphate-formalin buffer for 24 hours for morphometric analysis of the tibias of the rats. Left femurs and right femurs is soaked with normal saline, washed repeatedly for 3 times, wrapped with medical gauzes (pre-soaked with normal saline) and tinfoil, and then stored in a −20° C. refrigerator for trabecular bone microstructure (micro-CT scanning) and mechanical strength tests of bone biomechanical indexes (three-point bending test). […]

C[C@]12CC[C@@H]3c4ccc(O)cc4CC[C@H]3[C@@H]1CC[C@@H]2O [ES, 17β-estradiol]
trabecular bone area: significantly increased
trabecular bone connection: tighter
trabecular bone spacing: smaller
trabecular bone width: wider
